Results taken from patent US12606520B2, “Calpain-2 inhibitor compounds and methods of treatment” (WESTERN UNIVERSITY OF HEALTH SCIENCES, priority 2020, dated 2026).
Read-outs that look alike come from different tables or passages of the source.

Assay: PK in mice after iv injection of liposomal NA112: brain
Type: in vivo
Details: mouse; for concentration at 1 min / concentration at 5 min / concentration at 0.25 h / concentration at 0.5 hr / concentration at 1 hr / concentration at 2 h / concentration at 4 h / concentration at 8 h / concentration at 16 h: iv, 10 mg/kg, mice iv 10 mg/kg liposomes; for concentration at 1 min: 0.0167 hr; for concentration at 5 min: 0.0833 hr
Protocol: NA112 was prepared in liposomes at a concentration of 1.5 mg/ml. Mice were injected in the tail vein with 200 μl of NA112 in liposomes (corresponding to a dose of 10 mg/kg) and were sacrificed at the following time-points: 1, 5, 15, 30 min, 1, 2, 4, 8, 16 and 24 h. Blood was collected and plasma rapidly prepared by centrifugation. Brains were also collected. NA112 in plasma and in brain homogenates was assayed with LC/Ms and the sensitivity of the assay was 1 ng/ml. Experiments were performed in duplicate (A1 and A2 in Table 3). Results were averaged for preparing the figure and calculating the half-life of NA112 in plasma and in brain.
Data from table 4 are plotted as a function of time. While the curve is not easily fitted with a 2-compartment model, the slower component appears to have a half-life of about 3 h.

[1] = read-out: Brain concentration A1
[2] = read-out: Brain concentration A2
[3] = read-out: Brain concentration Mean

CCC(NC(=O)[C@H](CC(C)C)NC(=O)NCc1ccccc1)C(=O)C(=O)NCc1cc(OC)cc(OC)c1 (mixture of isomers) [NA112, (2S)-2-(3-benzylureido)-N-(1-((3,5-dimethoxybenzyl)amino)-1,2-dioxopentan-3-yl)-4-methylpentanamide]
concentration at 1 min [1]: 520 ng/mL
concentration at 1 min [2]: 305 ng/mL
concentration at 1 min [3]: 412 ng/mL
concentration at 5 min [1]: 168 ng/mL
concentration at 5 min [2]: 129 ng/mL
concentration at 5 min [3]: 149 ng/mL
concentration at 0.25 h [1]: 106 ng/mL
concentration at 0.25 h [2]: 62.3 ng/mL
concentration at 0.25 h [3]: 84.4 ng/mL
concentration at 0.5 hr [1]: 60.6 ng/mL
concentration at 0.5 hr [2]: 63.4 ng/mL
concentration at 0.5 hr [3]: 62 ng/mL
concentration at 1 hr [1]: 45.6 ng/mL
concentration at 1 hr [2]: 48.4 ng/mL
concentration at 1 hr [3]: 47 ng/mL
concentration at 2 h [1]: 25.9 ng/mL
concentration at 2 h [2]: 30.9 ng/mL
concentration at 2 h [3]: 28.4 ng/mL
concentration at 4 h [1]: 14 ng/mL
concentration at 4 h [2]: 21.3 ng/mL
concentration at 4 h [3]: 17.6 ng/mL
concentration at 8 h [1]: 19.5 ng/mL
concentration at 8 h [2]: 15.4 ng/mL
concentration at 8 h [3]: 17.4 ng/mL
concentration at 16 h [1]: 6.65 ng/mL
concentration at 16 h [2]: 9.41 ng/mL
concentration at 16 h [3]: 8.03 ng/mL
half-life (mice, iv 10 mg/kg in liposomes, read-out: Half-life of slower component in brain (converted)): ~3 h
